Values of other authors as cited in patent US20250009687A1, “COMPOSITIONS AND METHODS USING A COMBINATION OF NUTRIENTS TO SUPPORT COGNITION AND EMOTIONAL HEALTH IN A MAMMAL” (SOCIETE DES PRODUITS NESTLE S.A., priority 2021, published 2025).

Test system: TFEB
Conditions: Fu X. et al., Experimental Neurology 2021

Question: What does the source list for `C[C@@H]1O[C@@H](O[C@H]2[C@H](O[C@H]3C[C@]4(C)[C@H](C[C@@H](O)[C@@H]5[C@@H]([C@]6(C)CC[C@H](C(C)(C)O)O6)CC[C@]54C)[C@@]4(C)CC[C@H](O)C(C)(C)[C@H]34)O[C@H](CO)[C@@H](O)[C@@H]2O)[C@H](O)[C@H](O)[C@H]1O` [PF11]?
Answer: neuroprotection: neuroprotective; Lamp1 and Ctsd mRNA (acting through TFEB): increase
